Experimental findings from patent publication US12679824B2 (Hoffmann-La Roche Inc., priority 2020, dated 2026) are described below.

As usually defined, the IC90 is the point of the concentration-response curve where the effect stands at 90%.

The test system of one test is Acinetobacter baumannii ATCC17961. The experiment in a line: 90% Growth Inhibitory Concentration (IC90) determination, antimicrobial susceptibility testing. Format: cell-based. The note with it: Acinetobacter baumannii, ATCC17961, 16 h, Acinetobacter baumannii ATCC17961; Iso-Sensitest broth; growth by optical density at 600 nm over 16h; concentration inhibiting 90% of the growth; read-out: ATCC 17961 IC90. The method, then:
Antimicrobial Susceptibility Testing:
90% Growth Inhibitory Concentration (IC90) Determination
The in vitro antimicrobial activity of the compounds was determined according to the following procedure:
The assay used a 10-points Iso-Sensitest broth medium to measure quantitatively the in vitro activity of the compounds against Acinetobacter baumannii ATCC17961.
Stock compounds in DMSO were serially twofold diluted (e.g. range from 50 to 0.097 μM final concentration) in 384 wells microtiter plates and inoculated with 49 μl the bacterial suspension in Iso-Sensitest medium to have a final cell concentration of ~5×10^(5) CFU/ml in a final volume/well of 50 ul/well. Microtiter plates were incubated at 35±2° C.
Bacterial cell growth was determined with the measurement of optical density at λ=600 nm each 20 minutes over a time course of 16h. Growth inhibition was calculated during the logarithmic growth of the bacterial cells with determination of the concentration inhibiting 50% (IC50) and 90% (IC90) of the growth.
Table 1 provides the 90% growth inhibitory concentrations (IC90) in micromoles per liter of the compounds of present invention obtained against the strain Acinetobacter baumannii ATCC17961.
For the compound `Cn1c(-c2cn(-c3ncc(NCCN)cn3)nc2C(F)(F)F)cnc1C(=O)Nc1ccc(C(=O)N2CCN(C(=O)C3CCNCC3)CC2)c(Cl)c1` [Example B2, 5-[1-[5-(2-aminoethylamino)pyrimidin-2-yl]-3-(trifluoromethyl)pyrazol-4-yl]-N-[3-chloro-4-[4-(piperidine-4-carbonyl)piperazine-1-carbonyl]phenyl]-1-methyl-imidazole-2-carboxamide], the IC90 was 170 nM. Same read-out and setting: in the case of `CN(C)c1ccc(-n2cc(-c3cnc(C(=O)Nc4ccc(C(=O)N5CCN(C(=O)C6CCNCC6)CC5)c(Cl)c4)n3C)c(C(F)(F)F)n2)nn1` [Example B3, N-[3-chloro-4-[4-(piperidine-4-carbonyl)piperazine-1-carbonyl]phenyl]-5-[1-[6-(dimethylamino)pyridazin-3-yl]-3-(trifluoromethyl)pyrazol-4-yl]-1-methyl-imidazole-2-carboxamide] it was 480 nM; in that of `COCCNc1ccc(-n2cc(-c3cnc(C(=O)Nc4ccc(C(=O)N5CCN(C(=O)C6CCNCC6)CC5)c(Cl)c4)n3C)c(C(F)(F)F)n2)nc1` [Example C2, N-[3-chloro-4-[4-(piperidine-4-carbonyl)piperazine-1-carbonyl]phenyl]-5-[1-[5-(2-methoxyethylamino)-2-pyridyl]-3-(trifluoromethyl)pyrazol-4-yl]-1-methyl-imidazole-2-carboxamide], 340 nM; in that of `Cn1c(-c2cn(-c3ccc(NCCC(N)=O)cn3)nc2C(F)(F)F)cnc1C(=O)Nc1ccc(C(=O)N2CCN(C(=O)C3CCNCC3)CC2)c(Cl)c1` [Example C3, 5-[1-[5-[(3-amino-3-oxo-propyl)amino]-2-pyridyl]-3-(trifluoromethyl)pyrazol-4-yl]-N-[3-chloro-4-[4-(piperidine-4-carbonyl)piperazine-1-carbonyl]phenyl]-1-methyl-imidazole-2-carboxamide], 1200 nM. With `Cn1c(-c2cn(-c3ccc(N)cn3)nc2C(F)(F)F)cnc1C(=O)Nc1ccc(C(=O)N2CCN(C(=O)C3(O)CCNCC3)CC2)c(Cl)c1` [Example C4, 5-[1-(5-amino-2-pyridyl)-3-(trifluoromethyl)pyrazol-4-yl]-N-[3-chloro-4-[4-(4-hydroxypiperidine-4-carbonyl)piperazine-1-carbonyl]phenyl]-1-methyl-imidazole-2-carboxamide], the IC90 was 310 nM. On to `COc1ccnc(-n2cc(-c3cnc(C(=O)Nc4ccc(C(=O)N5CCN(C(=O)C6CCNCC6)CC5)c(Cl)c4)n3C)c(C(F)(F)F)n2)n1` [Example C5, N-[3-chloro-4-[4-(piperidine-4-carbonyl)piperazine-1-carbonyl]phenyl]-5-[1-(4-methoxypyrimidin-2-yl)-3-(trifluoromethyl)pyrazol-4-yl]-1-methyl-imidazole-2-carboxamide], for which the concentration for an effect of 90% (IC90) worked out at 930 nM.

Turning to `COc1nccc(-n2cc(-c3cnc(C(=O)Nc4ccc(C(=O)N5CCN(C(=O)C6CCNCC6)CC5)c(Cl)c4)n3C)c(C(F)(F)F)n2)n1` [Example C6, N-[3-chloro-4-[4-(piperidine-4-carbonyl)piperazine-1-carbonyl]phenyl]-5-[1-(2-methoxypyrimidin-4-yl)-3-(trifluoromethyl)pyrazol-4-yl]-1-methyl-imidazole-2-carboxamide], the IC90 is 890 nM. The same measure, in the same setting: in the case of `Cn1c(-c2cn(-c3ccc(N)cn3)nc2C(F)(F)F)cnc1C(=O)Nc1ccc(C(=O)NCC2CCN(C(=O)C3CCNCC3)CC2)c(Cl)c1` [Example C7, 5-[1-(5-amino-2-pyridyl)-3-(trifluoromethyl)pyrazol-4-yl]-N-[3-chloro-4-[[1-(piperidine-4-carbonyl)-4-piperidyl]methylcarbamoyl]phenyl]-1-methyl-imidazole-2-carboxamide] it was 660 nM; in that of `Cn1c(-c2cn(-c3ccc(N)cn3)nc2C(F)(F)F)cnc1C(=O)Nc1ccc(C(=O)N2CCN(C(=O)[C@@H]3COCCN3)CC2)c(Cl)c1` [Example C8, 5-[1-(5-amino-2-pyridyl)-3-(trifluoromethyl)pyrazol-4-yl]-N-[3-chloro-4-[4-[(3S)-morpholine-3-carbonyl]piperazine-1-carbonyl]phenyl]-1-methyl-imidazole-2-carboxamide], 820 nM. On the same count and under the same terms, in the case of `CN1CCC(C(=O)N2CCN(C(=O)c3ccc(NC(=O)c4ncc(-c5cn(-c6ccc(N)cn6)nc5C(F)F)n4C)cc3Cl)CC2)CC1` [Example C9, 5-[1-(5-amino-2-pyridyl)-3-(difluoromethyl)pyrazol-4-yl]-N-[3-chloro-4-[4-(1-methylpiperidine-4-carbonyl)piperazine-1-carbonyl]phenyl]-1-methyl-imidazole-2-carboxamide] it was 420 nM; in that of `COc1nn(-c2ccc(N)cn2)cc1-c1cnc(C(=O)Nc2ccc(C(=O)N3CCN(C(=O)C4CCN(C)CC4)CC3)c(Cl)c2)n1C` [Example C10, 5-[1-(5-amino-2-pyridyl)-3-methoxy-pyrazol-4-yl]-N-[3-chloro-4-[4-(1-methylpiperidine-4-carbonyl)piperazine-1-carbonyl]phenyl]-1-methyl-imidazole-2-carboxamide], 7000 nM; in that of `CN1CCC(C(=O)N2CCN(C(=O)c3ccc(NC(=O)c4ncc(-c5cn(-c6ccc(N)cn6)nc5C#N)n4C)cc3Cl)CC2)CC1` [Example C11, 5-[1-(5-amino-2-pyridyl)-3-cyano-pyrazol-4-yl]-N-[3-chloro-4-[4-(1-methylpiperidine-4-carbonyl)piperazine-1-carbonyl]phenyl]-1-methyl-imidazole-2-carboxamide], 2000 nM. Consider `Cc1c[nH]nc1-n1cc(-c2cnc(C(=O)Nc3ccc(C(=O)N4CCN(C(=O)C5CCN(C)CC5)CC4)c(Cl)c3)n2C)c(C(F)(F)F)n1` [Example C15, N-[3-chloro-4-[4-(1-methylpiperidine-4-carbonyl)piperazine-1-carbonyl]phenyl]-1-methyl-5-[1-(4-methyl-1H-pyrazol-3-yl)-3-(trifluoromethyl)pyrazol-4-yl]imidazole-2-carboxamide], for which the IC90 was determined as 910 nM. The same measure, in the same setting: in the case of `Cn1c(-c2cn(-c3ccc(N)cn3)nc2C(F)(F)F)cnc1C(=O)Nc1ccc(C(=O)N2CCN(C(=O)CN3CCC(O)C3)CC2)c(Cl)c1` (centres unmarked) [Example C16, 5-[1-(5-amino-2-pyridyl)-3-(trifluoromethyl)pyrazol-4-yl]-N-[3-chloro-4-[4-[2-(3-hydroxypyrrolidin-1-yl)acetyl]piperazine-1-carbonyl]phenyl]-1-methyl-imidazole-2-carboxamide] it was 260 nM. As to `Cn1c(-c2cn(-c3ccc([N+](=O)[O-])cn3)nc2C(F)(F)F)cnc1C(=O)Nc1ccc(C(=O)N2CCN(C(=O)[C@H]3NCC[C@@H]3O)CC2)c(Cl)c1` [Example C17, N-[3-chloro-4-[4-[(2S,3S)-3-hydroxypyrrolidine-2-carbonyl]piperazine-1-carbonyl]phenyl]-1-methyl-5-[1-(5-nitro-2-pyridyl)-3-(trifluoromethyl)pyrazol-4-yl]imidazole-2-carboxamide], the concentration for an effect of 90% (IC90) worked out at 790 nM.

Turning to `CNc1ccc(-n2cc(-c3cnc(C(=O)Nc4ccc(C(=O)N5CCN(C(=O)[C@H]6NCC[C@@H]6O)CC5)c(Cl)c4)n3C)c(C(F)(F)F)n2)nc1` [Example D4, N-[3-chloro-4-[4-[(2S,3S)-3-hydroxypyrrolidine-2-carbonyl]piperazine-1-carbonyl]phenyl]-1-methyl-5-[1-[5-(methylamino)-2-pyridyl]-3-(trifluoromethyl)pyrazol-4-yl]imidazole-2-carboxamide], the IC90 was 520 nM.

Regarding `CNc1ccc(-n2cc(-c3cnc(C(=O)Nc4ccc(C(=O)N5CCN(C(=O)CN6CCC(O)C6)CC5)c(Cl)c4)n3C)c(C(F)(F)F)n2)nc1` (centres unmarked) [Example D5, N-[3-chloro-4-[4-[2-(3-hydroxypyrrolidin-1-yl)acetyl]piperazine-1-carbonyl]phenyl]-1-methyl-5-[1-[5-(methylamino)-2-pyridyl]-3-(trifluoromethyl)pyrazol-4-yl]imidazole-2-carboxamide], the IC90 was determined as 310 nM. Still for that read-out and setting: in the case of `CNc1ccc(-n2cc(-c3cnc(C(=O)Nc4ccc(C(=O)N5CCN(C(=O)C6CCNCC6)CC5)c(C)c4)n3C)c(C(F)(F)F)n2)nc1` [Example D6, 1-methyl-5-[1-[5-(methylamino)-2-pyridyl]-3-(trifluoromethyl)pyrazol-4-yl]-N-[3-methyl-4-[4-(piperidine-4-carbonyl)piperazine-1-carbonyl]phenyl]imidazole-2-carboxamide] it was 370 nM; in that of `CNc1ccc(-n2cc(-c3cnc(C(=O)Nc4ccc(C(=O)N5CCN(C(=O)[C@@H]6C[C@@H](O)CN6)CC5)c(Cl)c4)n3C)c(C(F)(F)F)n2)nc1` [Example D7, N-[3-chloro-4-[4-[(2S,4R)-4-hydroxypyrrolidine-2-carbonyl]piperazine-1-carbonyl]phenyl]-1-methyl-5-[1-[5-(methylamino)-2-pyridyl]-3-(trifluoromethyl)pyrazol-4-yl]imidazole-2-carboxamide], 280 nM.

Still in this test, the particulars now being: Acinetobacter baumannii, ATCC17961, 16 h, read-out: ATCC 17961 IC90.
On to `Cn1c(-c2cn(-c3ccc(N)cn3)nc2C(F)(F)F)cnc1C(=O)Nc1ccc(C(=O)N2CCN(C(=O)C3CCNCC3)CC2)c(Cl)c1` [Example C1, 5-[1-(5-Amino-2-pyridyl)-3-(trifluoromethyl)pyrazol-4-yl]-N-[3-chloro-4-[4-(piperidine-4-carbonyl)piperazine-1-carbonyl]phenyl]-1-methyl-imidazole-2-carboxamide], for which the IC90 turned out to be 220 nM.
